From patent US10918713B2, “Epitopes from allergen proteins and methods and uses for immune response modulation” (LA JOLLA INSTITUTE FOR ALLERGY AND IMMUNOLOGY, priority 2012, dated 2021)
Several values for one entry are separate records, joined by “and”; a condition that tells them apart may be missing. Equal values may be shown once.

Experiments:
Assay type in all cases: cell-based, human
[1] = test system: PBMC from allergic donors; test: IFN-γ ELISPOT with extract-stimulated short-term lines; conditions: positive donor/peptide response
Procedure: (§1) Spots were counted by computer-assisted image analysis (Zeiss, KS-ELISPOT reader, Munich, Germany).
(§2) Each assay was performed in triplicate. The level of statistical significance was determined with a Student's t-test using the mean of triplicate values of the response against relevant pools or individual peptides versus the response against the DMSO control.

[2] = test system: PBMC from allergic donors; test: IL-5 ELISPOT with extract-stimulated short-term lines; conditions: positive donor/peptide response
Procedure: as §1, §2

[3] = test system: PBMC from allergic donors; test: Dual ELISPOT, total IL-5 and IFN-γ response (SFC); conditions: sum of IFNg and IL-5
Procedure: as §1, §2

Molecule | Response (SFC/10^6) IFNg ([1]; one donor per table line) | Response (SFC/10^6) IFNg ([1]; each table line is one donor) | Response (SFC/10^6) Total ([3]; each table line is one donor) | Response (SFC/10^6) Total ([3]; one donor per table line) | other results
3324.0001 (AVGLLKAVESYLLAH) | 597 SFC/10^6 |  |  |  | Response (SFC/10^6) IL-5 ([2]; one donor per table line): 597 SFC/10^6
3324.0099 (MKNIFMLTLFILIIT) |  | 77 SFC/10^6 | 57 SFC/10^6 and 77 SFC/10^6 |  | Response (SFC/10^6) IL-5 ([2]; each table line is one donor): 57 SFC/10^6
3324.0100 (MLTLFILIITSTIKA) |  | 63 SFC/10^6 and 167 SFC/10^6 | 63 SFC/10^6 and 167 SFC/10^6 |  | 
3324.0103 (IAKVPPGPNITATYG) | 153 SFC/10^6 and 223 SFC/10^6 and 267 SFC/10^6 |  |  | 153 SFC/10^6 and 223 SFC/10^6 and 267 SFC/10^6 | 
3324.0372 (PAKNIYSFNEIVALW) | 67 SFC/10^6 |  |  | 67 SFC/10^6 | 
3324.0379 (TNFEIEASFGVEASE) | 1113 SFC/10^6 |  |  | 1113 SFC/10^6 | 
3324.0380 (VILAINHSVFVKGDH) | 1410 SFC/10^6 |  |  | 1410 SFC/10^6 | 
3324.0382 (LYPDVKYTTVEEYLQ) | 67 SFC/10^6 |  |  |  | Response (SFC/10^6) IL-5 ([2]; one donor per table line): 67 SFC/10^6
3324.0384 (VKAFKQVDVVISTVG) | 1007 SFC/10^6 |  |  | 1007 SFC/10^6 | 
3324.0630 (LVATSAISLHMQEAG) | 83 SFC/10^6 |  |  | 83 SFC/10^6 | 
3324.0633 (MLAVVAVVLASMVGG) | 227 SFC/10^6 |  |  | 227 SFC/10^6 | 
3324.0639 (TVWAQSAAFPAFKPE) | 463 SFC/10^6 and 100 SFC/10^6 |  |  | 463 SFC/10^6 and 100 SFC/10^6 | 
3324.0652 (LRTLGSTSADEVQRM) | 113 SFC/10^6 |  |  | 113 SFC/10^6 | 
3324.0894 (NGKLHLSLIDPSTLS) | 460 SFC/10^6 |  |  | 460 SFC/10^6 | 
3324.0914 (FAFGYFNGRILGVCP) | 133 SFC/10^6 |  |  | 133 SFC/10^6 | 
3324.0918 (NAMDEIIKSTDAEPA) | 260 SFC/10^6 |  |  | 260 SFC/10^6 | 
3324.0922 (TGLPLMYKFGDNLVV) | 247 SFC/10^6 |  |  | 247 SFC/10^6 | 
3324.1133 (MASSSSVLLVVALFA) | 53 SFC/10^6 |  |  | 53 SFC/10^6 | 
3324.1145 (LRKYGIAAENVIDVK) |  | 50 SFC/10^6 | 50 SFC/10^6 |  | 
3324.1151 (NEMSWIESIPFVHLG) |  | 1933 SFC/10^6 | 1933 SFC/10^6 |  | 

Molecule | Response (SFC/10^6) IFNg ([1]; one donor per table line) | Response (SFC/10^6) IFNg ([1]; each table line is one donor) | Response (SFC/10^6) Total ([3]; each table line is one donor) | Response (SFC/10^6) Total ([3]; one donor per table line) | other results
3324.1152 (FPHRKGVLFNIQYVN) |  | 100 SFC/10^6 | 100 SFC/10^6 |  | 
3324.1159 (PENFAVVDLNQMRAV) |  | 75 SFC/10^6 | 75 SFC/10^6 |  | 
3324.1166 (HTVALFLAVALVAGP) |  | 53 SFC/10^6 | 53 SFC/10^6 |  | 
3324.1169 (DAALKLAYEAAQGAT) |  | 120 SFC/10^6 | 120 SFC/10^6 |  | 
3324.1171 (KTFVETFGTATNKAF) |  | 73 SFC/10^6 | 73 SFC/10^6 |  | 
3324.1177 (AAVKQAYAAKQATAP) |  | 43 SFC/10^6 | 43 SFC/10^6 |  | 
3324.1180 (PEAKYDAYVATLTEA) |  | 227 SFC/10^6 | 227 SFC/10^6 |  | 
3324.1443 (DAAYRVAYEAAEGST) |  | 70 SFC/10^6 | 70 SFC/10^6 |  | 
3324.1636 (FFSANAAALASRKSS) |  | 93 SFC/10^6 | 93 SFC/10^6 |  | 
3324.1647 (SLATLQSLESIVGKD) |  | 228 SFC/10^6 | 228 SFC/10^6 |  | 
3324.1653 (FDLYFSMARGNASLP) |  | 343 SFC/10^6 | 343 SFC/10^6 |  | 
3337.0006 (KQEDDGLCYEGTNCG) |  | 123 SFC/10^6 | 123 SFC/10^6 |  | 
3337.0007 (GKYCVCYDSKAICNK) |  | 47 SFC/10^6 | 47 SFC/10^6 |  | 
3337.0039 (SWGAIWRIDTPDKLT) |  | 155 SFC/10^6 | 155 SFC/10^6 |  | 
CC[C@H](C)[C@H](NC(=O)[C@H](Cc1ccccc1)NC(=O)[C@H](C)NC(=O)[C@H](CCCCN)NC(=O)[C@H](Cc1ccccc1)NC(=O)[C@H](CC(C)C)NC(=O)[C@H](CCCNC(=N)N)NC(=O)[C@H](C)NC(=O)[C@H](C)NC(=O)[C@@H]1CCCN1C(=O)[C@@H](NC(=O)[C@@H](NC(=O)[C@H](CO)NC(=O)[C@@H]1CCCN1)C(C)C)[C@@H](C)CC)C(=O)N[C@@H](CC(C)C)C(=O)O [3324.0004] | 683 SFC/10^6 |  |  | 683 SFC/10^6 | 
CC[C@H](C)[C@H](NC(=O)[C@H](CO)NC(=O)CNC(=O)CN)C(=O)N[C@@H](CC(C)C)C(=O)N[C@@H](CCCCN)C(=O)N[C@H](C(=O)N[C@@H](CO)C(=O)N[C@@H](CC(N)=O)C(=O)N[C@@H](CCCCN)C(=O)N[C@@H](Cc1ccccc1)C(=O)N[C@@H](Cc1c[nH]cn1)C(=O)N[C@H](C(=O)N[C@@H](CCCCN)C(=O)NCC(=O)O)[C@@H](C)O)[C@@H](C)CC [3324.0007] | 887 SFC/10^6 and 357 SFC/10^6 |  |  | 887 SFC/10^6 and 357 SFC/10^6 | 
CC[C@H](C)[C@H](N)C(=O)N[C@H](C(=O)N[C@@H](Cc1ccc(O)cc1)C(=O)N[C@H](C(=O)N[C@@H](CCCCN)C(=O)N1CCC[C@H]1C(=O)N[C@@H](C)C(=O)N[C@@H](CCCCN)C(=O)N[C@@H](CC(N)=O)C(=O)N[C@H](C(=O)N[C@@H](Cc1ccc(O)cc1)C(=O)N[C@@H](CO)C(=O)N[C@@H](Cc1ccccc1)C(=O)N[C@@H](CC(N)=O)C(=O)N[C@@H](CCC(=O)O)C(=O)O)[C@@H](C)CC)[C@@H](C)CC)C(C)C [3324.0386] | 227 SFC/10^6 and 487 SFC/10^6 |  |  | 227 SFC/10^6 and 487 SFC/10^6 | 
CC[C@H](C)[C@H](NC(=O)[C@H](CC(N)=O)NC(=O)[C@H](CCCCN)NC(=O)[C@H](C)NC(=O)[C@@H]1CCCN1C(=O)[C@H](CCCCN)NC(=O)[C@@H](NC(=O)[C@H](Cc1ccc(O)cc1)NC(=O)[C@@H](NC(=O)[C@@H](NC(=O)[C@H](CCCCN)NC(=O)[C@H](CC(N)=O)NC(=O)[C@H](CC(C)C)NC(=O)[C@@H](NC(=O)[C@@H](N)CCCNC(=N)N)[C@@H](C)O)[C@@H](C)CC)C(C)C)[C@@H](C)CC)C(=O)O [3324.0387] | 580 SFC/10^6 and 140 SFC/10^6 |  |  | 580 SFC/10^6 and 140 SFC/10^6 | 
CC[C@H](C)[C@H](NC(=O)[C@H](CC(N)=O)NC(=O)[C@H](CCSC)NC(=O)[C@H](CC(N)=O)NC(=O)[C@H](CCC(N)=O)NC(=O)[C@H](CO)NC(=O)[C@H](Cc1ccccc1)NC(=O)[C@@H](NC(=O)[C@@H](NC(=O)[C@H](Cc1c[nH]c2ccccc12)NC(=O)[C@H](CC(C)C)NC(=O)[C@H](C)NC(=O)[C@@H](N)CCCCN)[C@@H](C)CC)[C@@H](C)CC)C(=O)N[C@@H](CCCCN)C(=O)N[C@@H](CC(C)C)C(=O)O [3324.0604] | 390 SFC/10^6 |  |  | 390 SFC/10^6 | 
